Laboratory results as given in EP0155623A2, “Use of lipoxygenase inhibitors for the preparations of cytoprotective pharmaceutical compostions and process for the preparation of a cytoprotective pharmaceutical composition” (Merck & Co., Inc., priority 1984, dated 1985).

Test system: ulcers in 24 hr. fasted S.D. rats
Experiment: Indomethacin-Induced Ulcer Assay (assay B)
Format: in vivo
Conditions: 15 min prior to indomethacin 10 mg/kg p.o., stomach mucosae examined 4 hours later
Description: B. Indomethacin-Induced Ulcer Assay
Indomethacin, 10 mg/kg p.o., is used to induce ulcers in 24 hr. fasted S.D. rats. Fifteen minutes prior to indomethacin administration, groups of rats each receive either an aqueous vehicle (5% wt. methylcellulose) or the test compound at various doses perorally. Four hours later the animals are sacrificed and stomach-mucosae are examined for resulting ulcers.
Following the procedure of assay B (Indomethacin-Induced Ulcer Assay), 4-bromo-2,7-dimethoxy-3H-phenothiazin-3-one was tested for ulcer inhibition. For Table 49-1, % Inhibition was calculated as: [formula]

COc1ccc2nc3cc(OC)c(=O)c(Br)c-3sc2c1 [4-Bromo-2,7-dimethoxy-3H-phenothiazin-3-one]
% Inhibition (Dose 0.003 mg/kg perorally): 38% | % Inhibition (Dose 0.01 mg/kg perorally): 56% | % Inhibition (Dose 0.03 mg/kg perorally): 69% | % Inhibition (Dose 0.1 mg/kg perorally): 66% | % Inhibition (Dose 0.3 mg/kg perorally): 70% | % Inhibition (Dose 3.0 mg/kg perorally): 87%
